From ChEMBL document CHEMBL1127649, “Protein kinase C. Modeling of the binding site and prediction of binding constants” (J Med Chem, 1994) come the findings set out here.

This assay deals with Protein kinase C alpha type (Homo sapiens, UniProt P17252). Kind of assay: Binding affinity (Ki) towards Protein kinase C.
Usually Ki stands for the equilibrium dissociation constant of an inhibitor or competing ligand from its target. High values mean lower affinity, low ones higher affinity. Take `CCCCCCCCCCCCCC(=O)O[C@H]1CC(=O)O[C@@H]1CO`: the Ki turned out to be 5.3 µM.

Regarding `CCCCCCCCCCCCCC(=O)OC[C@H](CO)OC(C)=O`, the Ki is 1.3 µM.

Take `CCCCCCCCCCCCCC(=O)O[C@H]1CC(=O)O[C@H]1CO`: the Ki came to 31 µM.

The molecule `CCCCCCC(=O)O[C@@H]1CC(=O)O[C@H]1CO` came in with a Ki of 187 µM.

For the molecule `CCCCCCCCCCC(=O)O[C@@H]1CC(=O)O[C@H]1CO`, the inhibition constant (Ki) amounted to 4.1 µM.

`CCCCCCCCCCC/C=C1/C(=O)O[C@@H](CO)[C@@]12CCC(=O)O2` displayed a Ki of 13.6 µM.

As for `CCCCCCCCCCCC[C@@H]1C(=O)O[C@]2(CO)CC(=O)O[C@H]12`, the inhibition constant (Ki) is 7.6 µM.

Consider `CCCCCCCCCCC[C@H]1C(=O)O[C@@]2(CO)COC(=O)[C@@H]12`, for which the affinity corresponds to a Ki of 22 µM.

`CCCCCCCCCCC[C@@H]1C(=O)O[C@H]2[C@@H]1C(=O)O[C@@H]2CO` registered an inhibition constant Ki of 27.8 µM.

As to `CCCCCCCCCCCCCC(=O)C1CC(=O)O[C@H]1CO` (stereo partly specified), the Ki was found to be 2.5 µM.

For `CCCCCCCCCCCCC1C(=O)O[C@@H](CO)[C@@]12CCC(=O)O2` (stereo partly specified), the Ki is 75.3 µM.

`CCCCCCCCCCCCCCCCCCC(=O)O[C@@H]1CC(=O)O[C@H]1CO`: affinity was put at a Ki of 8.7 µM.

For the molecule `CO[C@@H](CC[C@H](C)[C@H]1O[C@@]23CC(OC(=O)C[C@H]([C@@H](C)O)OC(=O)C[C@](O)(O2)[C@H](C)CC3(C)C)[C@@H]1C)c1cccc(O)c1`, the inhibition constant (Ki) was 0.02 µM.

`CCCCCCCCCCCCCC(=O)O[C@@H]1CC(=O)O[C@@H]1CO` showed an inhibition constant Ki of 300 µM.

As to `CC(=O)O[C@@H]1CC(=O)O[C@H]1CO`, the Ki was > 1700 µM.

As for `CCCCCCCCCCC[C@@H]1C(=O)O[C@]2(CO)COC(=O)[C@H]12`, the Ki was found to be 7.7 µM.
